From ChEMBL document CHEMBL1201862, “PubChem BioAssay data set” (2004)
Active and inactive are the calls of the source.

Tests used:
[1] = biological target: Proto-oncogene tyrosine-protein kinase receptor Ret (Homo sapiens, UniProt P07949); format: functional;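 note: measured within a kinome-wide profiling panel, RET as the panel member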
[2] = biological target: Serine/threonine-protein kinase D3 (Homo sapiens, UniProt O94806); format: functional;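 note: determined within a kinase panel screen, with PRKCN as the panel member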
[3] = biological target: Mitogen-activated protein kinase 9 (Homo sapiens, UniProt P45984); format: functional;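 note: value from a kinome panel profiling assay, MAPK9 panel entry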
[4] = biological target: Platelet-derived growth factor receptor alpha (Homo sapiens, UniProt P16234); assay: Navigating the Kinome. Panel member name: PDGFRA; format: functional
[5] = biological target: Calcium/calmodulin-dependent protein kinase type II subunit alpha (Homo sapiens, UniProt Q9UQM7); assay: Navigating the Kinome. Panel member name: CAMK2A; format: functional
[6] = biological target: Serine/threonine-protein kinase pim-1 (Homo sapiens, UniProt P11309); format: functional
[7] = biological target: Calcium/calmodulin-dependent protein kinase type II subunit beta (Homo sapiens, UniProt Q13554); format: functional
[8] = luciferase reporter signal suppression in cells – H4 neuroglioma cells, luminescence, dose response (AID 1990); format: functional, cell-based
BJ [9] = assay: BJ-TERT fibroblast viability loss – cell-based, RAS-independent, luminescence, dose response (AID 1933); format: functional; conditions: Homo sapiens
[10] = Luminescence Cell-Based Dose Response HTS to Identify Inhibitors of 5'UTR Stem-Loop Driven Prion Protein mRNA Translation in H4 Neuroglioblastoma Cells. [Related pubchem assays: 1827 (Project Summary), 1813 (Primary HTS)]; format: functional
[11] = alpha-synuclein stem-loop luciferase translation blockers – H4 neuroglioma cells, luminescence, confirmation (AID 1988); format: functional, cell-based
BJ [12] = assay: cells; format: functional, cell-based; conditions: Homo sapiens
[13] = HPDE-C7 pancreatic duct cell viability loss – fluorescence, HTS (AID 430); format: functional, cell-based; conditions: Homo sapiens
[14] = viability loss of HPDE-C7K cells – cell-based, fluorescence, HTS, primary screen (AID 431); format: functional; conditions: Homo sapiens
BJ [15] = assay: BJ-TERT-LT-ST fibroblast viability loss – cell-based, RAS-independent, luminescence, dose response (AID 1935); format: functional; conditions: Homo sapiens;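 note: BJ fibroblasts immortalized with TERT plus LT and ST oncogenes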
[16] = DRD fibroblast viability loss – cell-based, non-viral oncogenic, luminescence, dose response (AID 1934); format: functional; conditions: Homo sapiens
Melanocortin receptor 4 = Melanocortin receptor 4 (Homo sapiens, UniProt P32245); assay: inhibitors of MC4R cAMP signaling – cell-based, TR-FRET, biased antagonists, dose response (AID 602298); format: functional;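 note: antagonist potency against agonist-stimulated cAMP production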
[17] = cAMP pathway inhibition in counterscreen cell line – TR-FRET cAMP detection, counter-screen for MC4R biased antagonist project, dose response (AID 602305); format: functional, cell-based;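 note: U2OS cells stimulated with forskolin near its EC80 as the cAMP inducer; potency is for inhibition of forskolin-stimulated cAMP signaling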
[18] = reduced cellular PGC1a acetyl-lysine signal – cell-based, cherry-picked samples, dose response (AID 720514); format: functional;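 note: potency may reflect raised or lowered acetylation signal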
[19] = A549 cell cytotoxicity, dose response, cytotoxicity control, plate reader, cherry-pick, antagonist series (AID 743412); format: functional, cell-based
[20] = toxicity toward HepG2 liver cells – cell-based, plate reader, cherry-pick, antagonist series, cytotoxicity control, dose response (AID 743416); format: functional
[21] = blockers of bursicon-stimulated LGR2 cAMP reporter – cell-based, HEK293, CRE-luciferase reporter, cherry pick, set 2, dose response (AID 743343); format: functional;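 note: transfected cells were stimulated with diluted bursicon conditioned medium after compound addition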
[22] = blockade of melanocortin 4 receptor signaling – cell-based, plate reader, cherry pick, counter-screen for LGR2 antagonist project, dose response (AID 743444); format: functional;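 note: transfected HEK 293 cells stimulated with alpha-MSH peptide; potency of inhibitors of the alpha-MSH evoked signal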
[23] = viability loss in HEK293 cells – cell-based, plate reader, cherry-picked samples, cytotoxicity control, dose response (AID 743446); format: functional
[24] = biological target: T1, Calpain-2 catalytic subunit (Sus scrofa, UniProt P43367); assay: m-calpain protease blockers, concentration series – biochemical, fluorogenic peptide substrate, dose response (AID 1420); format: functional
T1 sequence (P43367 whole entry): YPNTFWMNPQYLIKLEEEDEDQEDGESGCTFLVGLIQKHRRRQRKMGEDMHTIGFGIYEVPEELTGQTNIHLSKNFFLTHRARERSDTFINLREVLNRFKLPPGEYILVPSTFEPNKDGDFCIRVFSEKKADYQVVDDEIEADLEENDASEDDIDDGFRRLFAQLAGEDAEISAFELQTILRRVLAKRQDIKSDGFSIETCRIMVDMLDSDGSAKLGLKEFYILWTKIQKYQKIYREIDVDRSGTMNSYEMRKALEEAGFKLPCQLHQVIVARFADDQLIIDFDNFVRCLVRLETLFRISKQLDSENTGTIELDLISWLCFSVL

[25] = biological target: T2, High affinity choline transporter 1 (Homo sapiens, UniProt Q9GZV3); assay: human choline transporter blockers, potency – cell-based, 5-point CRC, membrane potential dye, dose response (AID 504840); format: functional
T2 sequence (Q9GZV3 whole entry): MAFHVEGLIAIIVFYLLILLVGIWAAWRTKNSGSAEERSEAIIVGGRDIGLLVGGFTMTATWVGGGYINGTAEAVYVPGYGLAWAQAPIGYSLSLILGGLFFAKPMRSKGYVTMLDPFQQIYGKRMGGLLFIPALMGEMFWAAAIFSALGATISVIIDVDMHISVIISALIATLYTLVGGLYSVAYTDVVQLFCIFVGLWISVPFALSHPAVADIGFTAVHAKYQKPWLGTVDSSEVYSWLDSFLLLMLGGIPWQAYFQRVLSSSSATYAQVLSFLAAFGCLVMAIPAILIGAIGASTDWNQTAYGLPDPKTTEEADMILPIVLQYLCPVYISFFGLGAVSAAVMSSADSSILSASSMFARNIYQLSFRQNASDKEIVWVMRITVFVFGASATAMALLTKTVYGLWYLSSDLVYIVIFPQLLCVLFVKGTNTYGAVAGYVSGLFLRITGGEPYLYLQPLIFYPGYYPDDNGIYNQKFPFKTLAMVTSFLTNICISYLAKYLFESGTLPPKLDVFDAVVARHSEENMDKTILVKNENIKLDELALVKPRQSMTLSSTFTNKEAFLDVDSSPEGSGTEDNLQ

[26] = biological target: T2, High affinity choline transporter 1; assay: human choline transporter blockers, potency – cell-based, 10-point CRC, membrane potential dye, dose response (AID 588401); format: functional;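 note: membrane potential dye fluorescence of choline-evoked depolarization via CHT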
[27] = biological target: Dual specificity protein kinase CLK2 (Homo sapiens, UniProt P49760); format: functional
[28] = biological target: Serine/threonine-protein kinase D2 (Homo sapiens, UniProt Q9BZL6); format: functional;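 note: measured against PRKD2 as one member of a kinome-wide kinase profiling panel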
[29] = biological target: Serine/threonine-protein kinase pim-2 (Homo sapiens, UniProt Q9P1W9); format: functional;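 note: value comes from a broad kinase panel profiling study in which PIM2 was one of the panel members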
[30] = biological target: Dual specificity tyrosine-phosphorylation-regulated kinase 1A (Homo sapiens, UniProt Q13627); format: functional;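 note: measured against DYRK1A as one member of a broad kinome profiling panel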

Chain of Serine/threonine-protein kinase D3 (O94806 whole entry): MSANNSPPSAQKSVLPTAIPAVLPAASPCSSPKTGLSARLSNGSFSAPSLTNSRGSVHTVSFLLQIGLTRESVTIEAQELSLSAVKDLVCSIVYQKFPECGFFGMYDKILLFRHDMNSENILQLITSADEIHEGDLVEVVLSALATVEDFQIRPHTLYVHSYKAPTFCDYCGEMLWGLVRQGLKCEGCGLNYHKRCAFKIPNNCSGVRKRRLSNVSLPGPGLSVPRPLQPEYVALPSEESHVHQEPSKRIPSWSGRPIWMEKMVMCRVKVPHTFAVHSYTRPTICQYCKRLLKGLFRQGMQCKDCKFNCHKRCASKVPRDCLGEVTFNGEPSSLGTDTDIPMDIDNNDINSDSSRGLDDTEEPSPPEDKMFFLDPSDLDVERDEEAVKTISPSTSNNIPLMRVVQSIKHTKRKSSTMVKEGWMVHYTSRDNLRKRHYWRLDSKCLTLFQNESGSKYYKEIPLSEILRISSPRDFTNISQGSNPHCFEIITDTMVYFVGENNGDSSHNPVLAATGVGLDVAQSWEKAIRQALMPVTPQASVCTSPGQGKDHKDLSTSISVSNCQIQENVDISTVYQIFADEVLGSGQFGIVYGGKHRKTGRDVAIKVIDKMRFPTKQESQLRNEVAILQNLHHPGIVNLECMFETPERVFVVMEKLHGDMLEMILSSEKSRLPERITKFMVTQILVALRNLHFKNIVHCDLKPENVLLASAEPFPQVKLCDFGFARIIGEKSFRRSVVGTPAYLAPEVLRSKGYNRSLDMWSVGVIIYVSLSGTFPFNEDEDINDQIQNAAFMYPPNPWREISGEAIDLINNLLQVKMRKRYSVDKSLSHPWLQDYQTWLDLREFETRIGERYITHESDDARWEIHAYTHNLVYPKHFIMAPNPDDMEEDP
Chain of Serine/threonine-protein kinase pim-1 (P11309 whole entry): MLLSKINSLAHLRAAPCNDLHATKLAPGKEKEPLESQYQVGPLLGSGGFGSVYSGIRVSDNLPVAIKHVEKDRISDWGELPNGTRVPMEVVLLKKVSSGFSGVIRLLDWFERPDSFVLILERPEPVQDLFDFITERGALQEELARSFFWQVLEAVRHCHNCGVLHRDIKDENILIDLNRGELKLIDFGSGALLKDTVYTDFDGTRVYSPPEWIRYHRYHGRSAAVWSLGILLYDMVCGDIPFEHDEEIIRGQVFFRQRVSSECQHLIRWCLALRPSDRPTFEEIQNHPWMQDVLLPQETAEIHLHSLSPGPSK
Chain of Melanocortin receptor 4 (P32245 whole entry): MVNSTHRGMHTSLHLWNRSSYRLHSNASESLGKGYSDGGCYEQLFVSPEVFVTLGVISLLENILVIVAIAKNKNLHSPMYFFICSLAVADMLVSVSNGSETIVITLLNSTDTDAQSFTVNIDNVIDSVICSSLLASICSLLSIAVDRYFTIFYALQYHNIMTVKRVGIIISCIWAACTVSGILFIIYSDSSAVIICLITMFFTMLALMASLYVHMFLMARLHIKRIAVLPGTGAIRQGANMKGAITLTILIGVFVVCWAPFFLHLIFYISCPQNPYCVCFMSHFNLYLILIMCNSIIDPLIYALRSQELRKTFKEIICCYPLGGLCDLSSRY
Chain of Calcium/calmodulin-dependent protein kinase type II subunit alpha (Q9UQM7 whole entry): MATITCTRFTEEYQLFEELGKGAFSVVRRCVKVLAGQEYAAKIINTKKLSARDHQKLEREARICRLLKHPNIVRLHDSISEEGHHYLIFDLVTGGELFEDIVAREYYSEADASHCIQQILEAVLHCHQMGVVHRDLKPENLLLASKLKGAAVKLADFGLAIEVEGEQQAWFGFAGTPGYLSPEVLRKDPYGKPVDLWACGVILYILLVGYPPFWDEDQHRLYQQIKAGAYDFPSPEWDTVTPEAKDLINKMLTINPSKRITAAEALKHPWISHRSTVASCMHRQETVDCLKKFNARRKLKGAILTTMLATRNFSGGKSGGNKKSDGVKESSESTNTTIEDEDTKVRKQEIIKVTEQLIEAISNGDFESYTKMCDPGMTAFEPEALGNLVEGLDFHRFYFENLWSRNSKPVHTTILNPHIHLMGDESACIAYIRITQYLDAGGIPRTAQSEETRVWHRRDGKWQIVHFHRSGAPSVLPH
Chain of Platelet-derived growth factor receptor alpha (P16234 whole entry): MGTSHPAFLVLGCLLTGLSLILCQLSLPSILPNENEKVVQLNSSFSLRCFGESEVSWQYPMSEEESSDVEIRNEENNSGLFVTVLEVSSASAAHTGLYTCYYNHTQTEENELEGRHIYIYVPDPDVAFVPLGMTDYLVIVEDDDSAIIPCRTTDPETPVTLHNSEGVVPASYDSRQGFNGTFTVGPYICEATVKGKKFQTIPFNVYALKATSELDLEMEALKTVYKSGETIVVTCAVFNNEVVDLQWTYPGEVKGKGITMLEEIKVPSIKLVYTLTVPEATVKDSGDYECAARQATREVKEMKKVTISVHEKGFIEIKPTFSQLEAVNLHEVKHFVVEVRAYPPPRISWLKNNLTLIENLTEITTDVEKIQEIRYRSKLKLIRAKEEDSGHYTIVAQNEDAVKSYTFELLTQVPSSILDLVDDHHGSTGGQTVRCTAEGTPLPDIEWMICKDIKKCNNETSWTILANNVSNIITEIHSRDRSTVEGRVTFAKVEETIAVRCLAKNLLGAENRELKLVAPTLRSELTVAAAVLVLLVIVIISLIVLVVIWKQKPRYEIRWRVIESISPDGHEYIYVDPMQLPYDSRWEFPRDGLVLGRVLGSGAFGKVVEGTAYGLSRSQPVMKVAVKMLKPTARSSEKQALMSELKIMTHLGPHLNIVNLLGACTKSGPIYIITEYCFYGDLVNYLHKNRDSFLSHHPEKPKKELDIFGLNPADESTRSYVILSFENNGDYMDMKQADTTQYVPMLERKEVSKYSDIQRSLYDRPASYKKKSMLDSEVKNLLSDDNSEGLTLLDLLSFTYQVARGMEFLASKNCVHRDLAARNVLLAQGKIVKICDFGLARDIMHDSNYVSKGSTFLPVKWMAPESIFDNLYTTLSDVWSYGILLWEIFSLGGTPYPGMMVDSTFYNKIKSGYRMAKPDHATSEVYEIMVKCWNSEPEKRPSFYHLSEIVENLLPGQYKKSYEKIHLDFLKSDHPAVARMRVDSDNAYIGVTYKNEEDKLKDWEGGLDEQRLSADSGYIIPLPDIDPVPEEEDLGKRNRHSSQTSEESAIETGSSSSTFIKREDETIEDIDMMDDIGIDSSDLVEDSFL
Chain of Dual specificity protein kinase CLK2 (P49760 whole entry): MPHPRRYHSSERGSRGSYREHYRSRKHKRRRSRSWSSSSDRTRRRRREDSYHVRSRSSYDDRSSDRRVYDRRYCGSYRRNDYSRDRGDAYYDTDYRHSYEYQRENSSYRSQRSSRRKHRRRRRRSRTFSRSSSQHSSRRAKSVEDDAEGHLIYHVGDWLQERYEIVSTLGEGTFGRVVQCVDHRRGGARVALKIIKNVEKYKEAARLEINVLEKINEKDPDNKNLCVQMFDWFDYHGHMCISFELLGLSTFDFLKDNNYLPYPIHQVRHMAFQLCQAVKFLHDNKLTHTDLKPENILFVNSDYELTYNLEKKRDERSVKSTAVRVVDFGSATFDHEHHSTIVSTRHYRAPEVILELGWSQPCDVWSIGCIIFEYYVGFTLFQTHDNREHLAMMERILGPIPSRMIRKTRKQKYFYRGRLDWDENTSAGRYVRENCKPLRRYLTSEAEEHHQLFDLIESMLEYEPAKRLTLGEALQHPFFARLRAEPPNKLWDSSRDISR
Chain of Calcium/calmodulin-dependent protein kinase type II subunit beta (Q13554 whole entry): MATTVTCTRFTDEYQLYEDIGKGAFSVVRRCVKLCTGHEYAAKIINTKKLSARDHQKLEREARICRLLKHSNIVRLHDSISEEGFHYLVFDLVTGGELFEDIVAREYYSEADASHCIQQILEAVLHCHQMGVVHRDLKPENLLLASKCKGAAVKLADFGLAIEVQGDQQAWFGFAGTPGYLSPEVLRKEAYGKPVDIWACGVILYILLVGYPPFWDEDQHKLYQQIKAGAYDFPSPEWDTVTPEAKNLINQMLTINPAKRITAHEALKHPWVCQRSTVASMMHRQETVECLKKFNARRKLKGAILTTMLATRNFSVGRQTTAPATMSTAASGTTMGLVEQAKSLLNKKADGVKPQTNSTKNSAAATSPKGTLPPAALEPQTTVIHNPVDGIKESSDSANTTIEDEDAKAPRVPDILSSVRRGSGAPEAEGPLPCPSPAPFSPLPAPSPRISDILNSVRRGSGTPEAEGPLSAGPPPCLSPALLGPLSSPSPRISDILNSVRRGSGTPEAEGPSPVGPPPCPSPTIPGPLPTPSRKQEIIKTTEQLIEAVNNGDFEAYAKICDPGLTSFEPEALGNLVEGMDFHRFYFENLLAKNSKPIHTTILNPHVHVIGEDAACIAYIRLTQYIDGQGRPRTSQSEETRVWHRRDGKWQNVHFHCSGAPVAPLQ
Chain of Serine/threonine-protein kinase pim-2 (Q9P1W9 whole entry): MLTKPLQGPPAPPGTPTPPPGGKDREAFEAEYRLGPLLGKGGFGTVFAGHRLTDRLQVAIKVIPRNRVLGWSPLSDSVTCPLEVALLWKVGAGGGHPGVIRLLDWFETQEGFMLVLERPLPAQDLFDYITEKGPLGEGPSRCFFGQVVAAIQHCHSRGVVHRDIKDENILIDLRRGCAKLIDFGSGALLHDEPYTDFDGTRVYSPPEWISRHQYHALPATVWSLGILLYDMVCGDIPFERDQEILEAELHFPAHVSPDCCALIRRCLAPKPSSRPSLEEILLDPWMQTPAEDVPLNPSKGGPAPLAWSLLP
Chain of Mitogen-activated protein kinase 9 (P45984 whole entry): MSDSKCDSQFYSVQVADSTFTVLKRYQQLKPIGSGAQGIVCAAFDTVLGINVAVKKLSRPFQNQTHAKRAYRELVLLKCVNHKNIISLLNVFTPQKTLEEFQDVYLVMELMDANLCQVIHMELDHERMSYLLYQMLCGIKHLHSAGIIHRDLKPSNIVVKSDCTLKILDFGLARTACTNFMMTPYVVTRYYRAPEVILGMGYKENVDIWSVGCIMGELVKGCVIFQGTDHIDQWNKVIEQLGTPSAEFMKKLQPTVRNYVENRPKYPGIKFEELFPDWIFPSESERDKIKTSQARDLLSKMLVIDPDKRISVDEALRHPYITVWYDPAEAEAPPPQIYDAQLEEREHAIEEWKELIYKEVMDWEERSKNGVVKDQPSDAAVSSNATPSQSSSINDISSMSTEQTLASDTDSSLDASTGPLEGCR

Which Ki [1] does the source give for `CCN(CCN(C)C)C(=O)c1cccc(-n2nc(C(C)(C)C)cc2NC(=O)Nc2cccc3ccccc23)c1` here?
The Ki was 1.58 µM (active).

And the Ki [2]?
Its Ki is 3.16 µM (active).

And the Ki [3]?
The Ki was 3.16 µM (active).

And the Ki [4]?
The Ki was 1.26 µM (active).

What about the Ki [5] of the same compound?
The Ki was > 7.94 µM (inactive).

With `CNCCONC(=O)c1ccc(F)c(F)c1Nc1ccc(I)cc1F` as the compound, how does the Ki [6] read?
Its Ki is 2 µM (active).

And the Ki [7]?
The Ki was 7.94 µM (active).

Which results are given for `C[S+]([O-])c1nc(-c2ccc(Br)cc2)cc(-c2ccccc2)c1C#N` (configuration not stated)?
EC50 [8]: 7.72 µM (active); EC50 (BJ [9]): 3.04 µM (active); EC50 [10]: 5.38 µM (active); EC50 [11]: 3.41 µM (active); EC50 (BJ [12]): 5.13 µM (active); EC50 [13]: 1.78 µM (active); EC50 [14]: 2.18 µM (active); EC50 (BJ [15]): 2.41 µM (active); EC50 [16]: 2.91 µM (active); IC50 (Melanocortin receptor 4): 1.28 µM (active); IC50 [17]: > 64.6 µM (inactive); AC50 [18]: 5.21 µM (active); AC50 [19]: 3.25 µM (active); AC50 [20]: 11.2 µM (active); AC50 [21]: 19.8 µM (active); AC50 [22]: 25.1 µM (active); AC50 [23]: 7.73 µM (active)

Which IC50 [24] does the source give for `CC(C)CCN=C(S)Nc1ccc([N+](=O)[O-])cc1` here?
The IC50 was > 50 µM (not active).

And the IC50 [25]?
The IC50 was 9.34 µM (active).

And the IC50 [26]?
Its IC50 is 8.43 µM (active).

For `Cn1ccc2c(-c3ccccc3F)nc(N(C(N)=O)c3c(F)cccc3F)nc21`, which Ki [27] is on record?
Its Ki is 7.94 µM (active).

What about the Ki [28] of the same compound?
The Ki was 3.16 µM (active).

What about the Ki [2] of the same compound?
Its Ki is 2 µM (active).

What about the Ki [29] of the same compound?
Its Ki is 1.26 µM (active).

What about the Ki [30] of the same compound?
The Ki was 3.16 µM (active).
